{
  "source": "paper PMC11191317",
  "about": "“PNSC928, a plant-derived compound, specifically disrupts CtBP2-p300 interaction and reduces inflammation in mice with acute respiratory distress syndrome” (Biology Direct, 2024)",
  "key": {"[1]": {"test_system": "MPAEpiC, RAW264.7, FL83B, TKPTS, and HL-1 cells", "assay": "Cell viability assay in normal cell lines", "type": "cell-based, mouse", "conditions": "for Cell growth (cell viability) at lower doses: co-treated with LPS, MTOB 5 mM, NSC95397 10 µM, C646 3 µM, A-485 5 nM, TPCA1 150 nM, BOT64 1 µM; for Cell growth (cell viability assay): assessed every 24 h for 5 days", "source_text": "Mouse pulmonary alveolar epithelial cells (MPAEpiC) were sourced from ScienCell Research Laboratories (Carlsbad, CA, USA; #M3200-57). The mouse macrophage cell line RAW 264.7 (#TIB-71), the mouse liver hepatocyte cell line FL83B (#CRL-2390), and the mouse kidney epithelial-like cell line TKPTS (#CRL-3361) were sourced from the American Type Culture Collection (ATCC) (Manassas, VA, USA). Additionally, the mouse cardiac muscle cell line HL-1 (SCC065) was acquired from Sigma-Aldrich. All cell lines were maintained in Dulbecco’s Modified Eagle Medium (DMEM) (Thermo Fisher; #A1048901) fortified with 10% fetal bovine serum (FBS) (Thermo Fisher; #A5256701) and a combination of 100 U/mL penicillin and streptomycin (Thermo Fisher; #15,140,122). Cells were cultured in a 37 °C incubator with 5% CO2, and the medium was changed every 2–3 days. For targeted gene manipulation, cells were transfected with gene-specific short hairpin RNAs (shRNAs) (Table S1) or plasmids (Table S2). Transfection was facilitated using the Lipofectamine 3000 Transfection Reagent (Thermo Fisher; #L3000001) as per the manufacturer’s recommended protocol.\n(§1) For LPS treatment, different knockdown (KD) cell lines—Control^KD, CtBP2^KD, p300^KD, and p65^KD, all derived from MPAEpiC—were seeded in 12-well plates and cultured at 37 °C until reaching 80% confluence. The cells were then treated with 200 ng/mL of LPS for 6 h, washed three times with PBS, and subjected to the required experiments. For experiments involving inhibitors of CtBP2, p300, and NF-κB, as well as the compound PNSC928, MPAEpiC, RAW264.7, FL83B, TKPTS, and HL-1 cells were seeded in 12-well plates and cultured at 37 °C to reach 80% confluence. Cells were then cotreated with 200 ng/mL LPS along with varying concentrations of the following chemicals: MTOB (0, 5, 10, or 20 mM), NSC95397 (0, 10, 20, or 40 µM), C646 (0, 3, 6, or 12 µM), A-485 (0, 5, 10, or 20 nM), TPCA1 (0, 150, 300, or 600 nM), BOT64 (0, 1, 2, or 4 µM), or PNSC928 (0, 11.8, 23.6, or 47.2 µM). After 6 h of treatment, cells were washed three times with PBS before proceeding with further experiments.\nFig. 5 Determination of PNSC928 cytotoxicity and evaluation of PNSC928 effects on the expression levels of CtBP2/p300/NF-κB target genes. (A-E) Cell viability assessment. Five cell lines, including MPAEpiC (A), RAW264.7 (B), FL83B (C), TKPTS (D), and HL-1 (E) were treated with varying concentrations of PNSC928 ([…]). Cell viability was assessed every 24 h for 5 days. (F-I) Effects of PNSC928 on gene expression levels. The RAW264.7 cells were co-treated with LPS and PNSC928 (23.6 and 47.2 µM) for a duration of 6 h. Subsequently, RNA isolation and RT-qPCR analysis were performed to quantify mRNA levels of various genes. (F) The mRNA levels of IL-1B, IL-6, IL-15, IL-18, TNFA, and IFNG. (G) The mRNA levels of CDH1, CDKN1A, CDKN2A, CHRD, PAX6, and BAX. (H) The mRNA levels of NOD2, CCL2, CXCL10, CXCL12, MMP1, and STAT1 mRNA levels, (I) The mRNA levels of MIP2, CCR5, GM-CSF, COX2, and iNOS. n = 3 for each experiment. ns: no significant difference. **P < 0.01; ***P < 0.001\nFive cell lines (MPAEpiC, RAW264.7, FL83B, TKPTS, and HL-1) were treated with MTOB (5 and 10 mM), NSC95397 (10 and 20 μM), C646 (3 and 6 μM), A-485 (5 and 10 nM), TCPA1 (150 and 300 nM), and BOT-64 (1 and 2 μM). Cell viability was assessed every 24 hours for 5 days. n=3 for all experiments. *P<0.05."}, "[2]": {"test_system": "MPAEpiC and RAW264.7 cells", "assay": "RT-qPCR of CtBP2/p300/NF-κB target genes in MPAEpiC and RAW264.7 cells cotreated with LPS and inhibitors", "type": "cell-based, mouse", "conditions": "LPS cotreatment, 6 h; for Expression of IL-1B, IL-6, IL-15, IL-18, TNFA, NOD2, CCL2, CXCL10, CXCL12, MMP1, and STAT1 / Expression of other genes under investigation (CtBP2 and NF-κB targets): p300 inhibitors; for Expression levels of IL-1B, IL-6, IL-8, IL-15, TNFA, MIP2, CCR5, GM-CSF, VEGF, COX2, and iNOS / Expression of the other studied genes (CtBP2 and p300 targets): NF-κB inhibitors; for Expression of IL-1B, IL-6, IL-15, IL-18, TNFA, CDH1, CDKN1A, CDKN2A, CHRD, PAX6, and BAX / Expression of the remaining genes (p300 and NF-κB targets): CtBP2 inhibitors", "procedure": "as §1\nRNA was isolated from both cultured cells and mouse lung tissues utilizing the TRIzol Reagent (Invitrogen; Shanghai, China; #15,596,018) in adherence to the manufacturer’s protocol. For each sample, 500 ng of RNA was employed for the synthesis of complementary DNA (cDNA) leveraging the High-Capacity cDNA Reverse Transcription Kit (Thermo Fisher; #4,368,814). Gene expression quantification was carried out using the SYBR GreenER qPCR SuperMix Universal (Thermo Fisher; #1176202K) in combination with the specific primers delineated in Table S3. Subsequent analysis normalized the expression levels to β-Actin, utilizing the 2^−ΔΔCt method.\nThe RAW264.7 cells were co-treated with LPS and the following compounds: 5 mM MTOB, 10 μM NSC95397, 3 μM C646, 5 nM A-485, 150 nM TPCA1, or 1 μM BOT64 for a duration of 6 hours. Subsequently, RNA isolation and RT-qPCR analysis were performed to quantify mRNA levels of various genes.\nThe MPAEpiC cells were co-treated with LPS and the following compounds: 5 mM MTOB, 10 μM NSC95397, 3 μM C646, 5 nM A-485, 150 nM TPCA1, or 1 μM BOT64 for a duration of 6 hours. Subsequently, RNA isolation and RT-qPCR analysis were performed to quantify mRNA levels of various genes."}},
  "data": [
    {"molecule": "CNC(=O)Nc1ccc2c(c1)CC[C@@]21OC(=O)N(CC(=O)N(Cc2ccc(F)cc2)[C@@H](C)C(F)(F)F)C1=O", "note": "[A-485]", "values": [
      {"measurement": "Cell growth (cell viability) at lower doses", "setting": "[1]", "result": "notable inhibition of cell growth"},
      {"measurement": "Expression of IL-1B, IL-6, IL-15, IL-18, TNFA, NOD2, CCL2, CXCL10, CXCL12, MMP1, and STAT1", "setting": "[2]", "result": "significantly modulated"},
      {"measurement": "Expression of other genes under investigation (CtBP2 and NF-κB targets)", "setting": "[2]", "result": "no discernible impact"}
    ]},
    {"molecule": "CC1(C)CC(=O)c2sc(=Nc3ccccc3)oc2C1", "note": "[BOT64]", "values": [
      {"measurement": "Cell growth (cell viability) at lower doses", "setting": "[1]", "result": "notable inhibition of cell growth"},
      {"measurement": "Expression levels of IL-1B, IL-6, IL-8, IL-15, TNFA, MIP2, CCR5, GM-CSF, VEGF, COX2, and iNOS", "setting": "[2]", "result": "dose-dependent alteration"},
      {"measurement": "Expression of the other studied genes (CtBP2 and p300 targets)", "setting": "[2]", "result": "without affecting"}
    ]},
    {"molecule": "CC1=NN(c2ccc(C(=O)O)cc2)C(=O)/C1=C\\c1ccc(-c2cc(C)c(C)cc2[N+](=O)[O-])o1", "note": "[C646]", "values": [
      {"measurement": "Cell growth (cell viability) at lower doses", "setting": "[1]", "result": "notable inhibition of cell growth"},
      {"measurement": "Expression of IL-1B, IL-6, IL-15, IL-18, TNFA, NOD2, CCL2, CXCL10, CXCL12, MMP1, and STAT1", "setting": "[2]", "result": "significantly modulated"},
      {"measurement": "Expression of other genes under investigation (CtBP2 and NF-κB targets)", "setting": "[2]", "result": "no discernible impact"}
    ]},
    {"molecule": "CSCCC(=O)C(=O)O", "note": "[MTOB]", "values": [
      {"measurement": "Cell growth (cell viability) at lower doses", "setting": "[1]", "result": "notable inhibition of cell growth"},
      {"measurement": "Expression of IL-1B, IL-6, IL-15, IL-18, TNFA, CDH1, CDKN1A, CDKN2A, CHRD, PAX6, and BAX", "setting": "[2]", "result": "dose-dependent reversal"},
      {"measurement": "Expression of the remaining genes (p300 and NF-κB targets)", "setting": "[2]", "result": "remained relatively unchanged"}
    ]},
    {"molecule": "O=C1C(SCCO)=C(SCCO)C(=O)c2ccccc21", "note": "[NSC95397]", "values": [
      {"measurement": "Cell growth (cell viability) at lower doses", "setting": "[1]", "result": "notable inhibition of cell growth"},
      {"measurement": "Expression of IL-1B, IL-6, IL-15, IL-18, TNFA, CDH1, CDKN1A, CDKN2A, CHRD, PAX6, and BAX", "setting": "[2]", "result": "dose-dependent reversal"},
      {"measurement": "Expression of the remaining genes (p300 and NF-κB targets)", "setting": "[2]", "result": "remained relatively unchanged"}
    ]},
    {"molecule": "CC(=CCCC1=CCC(C2COC(=O)C2)OC1O)CCC1=C(C)CCCC1(C)C", "note": "(centres unmarked) [PNSC928]", "values": [
      {"measurement": "Cell growth (cell viability assay)", "setting": "[1]; PNSC928 at 47.2 µM", "result": "slight inhibition of cell growth"},
      {"measurement": "Cell growth (cell viability assay)", "setting": "[1]; PNSC928 at lower concentrations (≤ 23.6 µM), all tested cell lines", "result": "did not inhibit cell growth"}
    ]},
    {"molecule": "NC(=O)Nc1sc(-c2ccc(F)cc2)cc1C(N)=O", "note": "[TPCA1]", "values": [
      {"measurement": "Cell growth (cell viability) at lower doses", "setting": "[1]", "result": "notable inhibition of cell growth"},
      {"measurement": "Expression levels of IL-1B, IL-6, IL-8, IL-15, TNFA, MIP2, CCR5, GM-CSF, VEGF, COX2, and iNOS", "setting": "[2]", "result": "dose-dependent alteration"},
      {"measurement": "Expression of the other studied genes (CtBP2 and p300 targets)", "setting": "[2]", "result": "without affecting"}
    ]}
  ]
}
